Results on twelve compounds are retold here after ChEMBL document CHEMBL3399943, “In vitro and in silico evaluation of twelve newly-synthesized 1-acetamide-5-methoxy-2-oxindoles as 5-Ht₇ receptor ligands” (Bioorg Med Chem Lett, 2015).
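Note: displacement of bound [3H]-SB269970 at the 5-HT7 receptor (origin unspecified), test concentration 10 µM, 60 min incubation.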

For the assay, the target named is 5-hydroxytryptamine receptor 7 (Homo sapiens) (UniProt P34969).
5-hydroxytryptamine receptor 7 (Homo sapiens), sequence (P34969 whole entry): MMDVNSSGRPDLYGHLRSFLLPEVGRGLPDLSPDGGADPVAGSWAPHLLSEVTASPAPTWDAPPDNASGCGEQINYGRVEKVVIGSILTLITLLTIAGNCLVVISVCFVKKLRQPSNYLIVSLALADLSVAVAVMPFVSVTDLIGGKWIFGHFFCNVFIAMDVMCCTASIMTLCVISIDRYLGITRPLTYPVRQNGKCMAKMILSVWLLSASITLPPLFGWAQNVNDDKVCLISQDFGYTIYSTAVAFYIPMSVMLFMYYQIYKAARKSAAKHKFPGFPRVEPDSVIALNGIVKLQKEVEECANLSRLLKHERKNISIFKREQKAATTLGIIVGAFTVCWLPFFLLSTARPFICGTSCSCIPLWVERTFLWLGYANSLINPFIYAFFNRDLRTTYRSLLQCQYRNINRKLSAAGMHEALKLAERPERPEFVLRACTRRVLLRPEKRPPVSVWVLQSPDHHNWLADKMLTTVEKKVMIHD
Description: Displacement of [3H]-SB269970 from 5-HT7 receptor (unknown origin) at 10 uM after 60 mins
For the compound `COc1ccc2c(c1)CC(=O)N2C(C(=O)NC(C)(C)C)c1ccc(Cl)cc1` (configuration not stated), the log(activity) was 1.2.

In the case of `COc1ccc2c(c1)CC(=O)N2C(C(=O)Nc1c(C)cccc1C)C(C)C` (configuration not stated), the log(activity) is 1.38.

`COc1ccc2c(c1)CC(=O)N2C(C(=O)NC(C)(C)C)C(C)C` (configuration not stated) gave a log(activity) of 1.48.

Take `COc1ccc2c(c1)CC(=O)N2C(C(=O)NC1CCCCC1)c1ccccc1` (configuration not stated): the log(activity) is 1.

Compound `COc1ccc2c(c1)CC(=O)N2C(C(=O)Nc1c(C)cccc1C)c1ccccc1` (configuration not stated) had a log(activity) of 1.2.

For `COc1ccc2c(c1)CC(=O)N2C(C(=O)NC(C)(C)C)C(C)(C)C` (configuration not stated), the log(activity) worked out at 1.15.

As for `COc1ccc2c(c1)CC(=O)N2C(C(=O)NC1CCCCC1)C(C)C` (configuration not stated), the log(activity) was determined as 1.2.

With `COc1ccc2c(c1)CC(=O)N2C(C(=O)NC1CCCCC1)C(C)(C)C` (configuration not stated), the log(activity) came out at 1.04.

The compound `COc1ccc2c(c1)CC(=O)N2C(C(=O)Nc1c(C)cccc1C)c1ccc(Cl)cc1` (configuration not stated) came in with a log(activity) of 1.25.

For `COc1ccc2c(c1)CC(=O)N2C(C(=O)Nc1c(C)cccc1C)C(C)(C)C` (configuration not stated), the log(activity) was 0.954.

Compound `COc1ccc2c(c1)CC(=O)N2C(C(=O)NC(C)(C)C)c1ccccc1` (configuration not stated) had a log(activity) of 1.18.

Consider `COc1ccc2c(c1)CC(=O)N2C(C(=O)NC1CCCCC1)c1ccc(Cl)cc1` (configuration not stated), for which the log(activity) is 1.3.
